Results taken from patent US20250230193A1, “CYCLIC COMPOUND HAVING SELECTIVE KRAS INHIBITORY EFFECT ON HRAS AND NRAS” (CHUGAI SEIYAKU KABUSHIKI KAISHA, priority 2022, published 2025).

Key:
[1] = target: GDP-bound HRAS wild-type protein (Homo sapiens, UniProt P01112); assay: Binding to HRAS by surface plasmon resonance (SPR), Single Cycle Kinetics; conditions: for HRAS/KRAS (ratio of KD value with respect to HRAS to KD value with respect to KRAS) / HRAS/KRAS (ratio of KD value for HRAS to KD value for KRAS): GDP-bound HRAS wild-type vs GDP-bound KRAS wild-type
Chain of GDP-bound HRAS wild-type protein (P01112 whole entry): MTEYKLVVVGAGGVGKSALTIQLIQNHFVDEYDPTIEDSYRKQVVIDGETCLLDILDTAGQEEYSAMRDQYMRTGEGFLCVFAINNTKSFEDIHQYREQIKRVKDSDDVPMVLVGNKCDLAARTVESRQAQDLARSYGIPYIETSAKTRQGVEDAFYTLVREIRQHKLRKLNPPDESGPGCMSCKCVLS

[2] = target: GDP-bound NRAS wild-type protein (Homo sapiens, UniProt P01111); assay: Binding to NRAS by surface plasmon resonance (SPR), Single Cycle Kinetics; conditions: for NRAS/KRAS (ratio of KD value with respect to NRAS to KD value with respect to KRAS) / NRAS/KRAS (ratio of KD value for NRAS to KD value for KRAS): GDP-bound NRAS wild-type vs GDP-bound KRAS wild-type
Chain of GDP-bound NRAS wild-type protein (P01111 whole entry): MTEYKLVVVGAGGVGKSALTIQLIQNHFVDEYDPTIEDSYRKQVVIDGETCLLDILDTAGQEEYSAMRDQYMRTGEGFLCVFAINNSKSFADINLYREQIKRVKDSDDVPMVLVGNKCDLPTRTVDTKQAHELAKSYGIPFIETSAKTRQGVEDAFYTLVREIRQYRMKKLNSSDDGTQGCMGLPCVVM

[3] = SPR, GDP-bound wild-type proteins

Compound: CCCOC[C@H]1C(=O)N[C@@H]([C@@H](C)CC)C(=O)N2CCC[C@H]2C(=O)N(C)[C@H]2C/C=C\CCN(C2=O)[C@@H](Cc2ccc(C)cc2)C(=O)N(C)CC(=O)N[C@@H](CCc2ccc(C(F)(F)F)c(OC)c2)C(=O)N2C[C@H](OCC)C[C@H]2C(=O)N(C)C2(CCC2)C(=O)N(C)[C@@H](C2CCCC2)C(=O)N(C)[C@H](C(=O)N(C)C)CC(=O)N1C [PP2334]
- HRAS/KRAS (ratio of KD value with respect to HRAS to KD value with respect to KRAS) ([1]; SPR): B (a compound having 3 or more and less than 10 is denoted as B)
- NRAS/KRAS (ratio of KD value with respect to NRAS to KD value with respect to KRAS) ([2]; SPR): A (a compound having 10 or more and less than 20 is denoted as A)

Compound: CCO[C@@H]1C[C@H]2C(=O)NC3(CCC3)C(=O)N(C)[C@@H](C3CCCC3)C(=O)N(C)[C@H](C(=O)N3CCCCC3)CC(=O)N(C)[C@H]3CCC/C=C/c4ccc(cc4)C[C@@H](C(=O)N(C)CC(=O)N[C@@H](CCc4ccc(Cl)c(Cl)c4)C(=O)N2C1)N1CC/C=C\C[C@@H](C1=O)N(C)C(=O)CN(C1CC1)C(=O)[C@H]([C@@H](C)CC)NC3=O [PP2958]
- HRAS/KRAS (ratio of KD value with respect to GDP-bound HRAS wild-type protein to KD value with respect to KRAS) ([1]; class symbols): A (a compound having 10 or more and less than 20 is denoted as A)
- NRAS/KRAS (ratio of KD value with respect to GDP-bound NRAS wild-type protein to KD value with respect to KRAS) ([2]; class symbols): AA (a compound having 20 or more is denoted as AA)

Compound: CCO[C@@H]1C[C@H]2C(=O)NC3(CCC3)C(=O)N(C)[C@@H](C3CCCC3)C(=O)N(C)[C@H](C(=O)N3CCOCC3)CC(=O)N(C)[C@@H](CC(F)F)C(=O)N[C@@H]([C@@H](C)CC)C(=O)N(C)CC(=O)N(C)[C@H]3CCCCCN(C3=O)[C@@H](Cc3ccc(F)cc3)C(=O)N(C)CC(=O)N[C@@H](CCc3cc(F)c(C(F)(F)F)c(F)c3)C(=O)N2C1 [PP1177]
- HRAS/KRAS (ratio of KD value with respect to HRAS to KD value with respect to KRAS) ([1]; KD ratio, SPR): B (a compound having 3 or more and less than 10 is denoted as B)
- NRAS/KRAS (ratio of KD value with respect to NRAS to KD value with respect to KRAS) ([2]; KD ratio, SPR): B (a compound having 3 or more and less than 10 is denoted as B)

Compound: CCC(CC)[C@H]1C(=O)N(C)[C@H](C(=O)N(C)C)CC(=O)N(C)[C@@H](COC)C(=O)N[C@@H]([C@@H](C)CC)C(=O)N(C)CC(=O)N(C)[C@H]2C/C=C\CCN(C2=O)[C@@H](Cc2ccc(C)cc2)C(=O)N(C)CC(=O)N[C@@H](CCc2ccc(C(F)(F)F)c(Cl)c2)C(=O)N2CCCCC[C@H]2C(=O)NC2(CC(C)(C)C2)C(=O)N1C [PP2966]
- HRAS/KRAS (ratio of KD value with respect to GDP-bound HRAS wild-type protein to KD value with respect to KRAS) ([1]; class symbols): A (a compound having 10 or more and less than 20 is denoted as A)
- NRAS/KRAS (ratio of KD value with respect to GDP-bound NRAS wild-type protein to KD value with respect to KRAS) ([2]; class symbols): A (a compound having 10 or more and less than 20 is denoted as A)

Compound: CCC[C@H]1C(=O)N[C@@H](C2CCCCC2)C(=O)N(C)CC(=O)N(C)[C@H]2C/C=C\CCN(C2=O)[C@@H](Cc2ccc(C)cc2)C(=O)N(C)CC(=O)N[C@@H](CCc2ccc(C(F)(F)F)c(Cl)c2)C(=O)N2C[C@H](OCC)C[C@H]2C(=O)NC2(CC(C)(C)C2)C(=O)N(C)[C@@H](CC(C)(C)C)C(=O)N(C)[C@H](C(=O)N(C)C)CC(=O)N1C [PP3018]
- HRAS/KRAS (ratio of KD value with respect to GDP-bound HRAS wild-type protein to KD value with respect to KRAS) [1, 3]: B (a compound having 3 or more and less than 10 is denoted as B)
- NRAS/KRAS (ratio of KD value with respect to GDP-bound NRAS wild-type protein to KD value with respect to KRAS) [2, 3]: A (a compound having 10 or more and less than 20 is denoted as A)

Compound: CCO[C@@H]1C[C@H]2C(=O)N(C)C3(CCC3)C(=O)N(C)[C@@H](C3CCCC3)C(=O)N(C)[C@H](C(=O)N(C)C)CC(=O)N(C)[C@@H](CC3CC3)C(=O)N[C@@H]([C@@H](C)CC)C(=O)N(C)CC(=O)N(C)[C@H]3C/C=C\CCN(C3=O)[C@@H](Cc3ccc(C)cc3)C(=O)N(C)CC(=O)N[C@@H](CCc3cc(F)c(C(F)(F)F)c(F)c3)C(=O)N2C1 [PP1795]
- HRAS/KRAS (ratio of KD value for HRAS to KD value for KRAS) ([1]; KD ratio, SPR): B (a compound having 3 or more and less than 10 is denoted as B)
- NRAS/KRAS (ratio of KD value for NRAS to KD value for KRAS) ([2]; KD ratio, SPR): A (a compound having 10 or more and less than 20 is denoted as A)

Compound: CCO[C@@H]1C[C@H]2C(=O)NC3(CC(C)(C)C3)C(=O)N(C)[C@@H](C(CC)CC)C(=O)N(C)[C@H](C(=O)N(C)C)CC(=O)N(C)[C@@H](CC(C)C)C(=O)N[C@@H]([C@@H](C)CC)C(=O)N(C)CC(=O)N(C)[C@H]3C/C=C\CCN(C3=O)[C@@H](Cc3ccc(C(F)(F)F)cc3)C(=O)N(C)CC(=O)N[C@@H](CCc3ccc(C(F)(F)F)c(Cl)c3)C(=O)N2C1 [PP2132]
- HRAS/KRAS (ratio of KD value with respect to HRAS to KD value with respect to KRAS) ([1]; SPR): A (a compound having 10 or more and less than 20 is denoted as A)
- NRAS/KRAS (ratio of KD value with respect to NRAS to KD value with respect to KRAS) ([2]; SPR): AA (a compound having 20 or more is denoted as AA)

Compound: CCO[C@@H]1C[C@H]2C(=O)NC3(CCC3)C(=O)N(C)[C@@H](C3CCCC3)C(=O)N(CCc3ccccc3)[C@H](C(=O)N(C)C)CC(=O)N(C)[C@@H](CC)C(=O)N[C@@H]([C@@H](C)CC)C(=O)N(C)CC(=O)N(C)[C@H]3CCCCN(C3=O)[C@@H](Cc3ccc(C(F)(F)F)cc3)C(=O)N(C)CC(=O)N[C@@H](CCc3cc(F)c(C(F)(F)F)c(F)c3)C(=O)N2C1 [PP0647]
- HRAS/KRAS (ratio of KD value with respect to GDP-bound HRAS wild-type protein to KD value with respect to KRAS) ([1]; SPR): B (a compound having 3 or more and less than 10 is denoted as B)
- NRAS/KRAS (ratio of KD value with respect to GDP-bound NRAS wild-type protein to KD value with respect to KRAS) ([2]; SPR): C (A compound having a KD ratio of 0.1 or more and less than 3 is denoted as C)

Compound: CCC(CC)[C@H]1C(=O)N(C)[C@H](C(=O)N(C)C)CC(=O)N(C)[C@@H](COC)C(=O)N[C@@H]([C@@H](C)CC)C(=O)N2CCC[C@H]2C(=O)N(C)[C@H]2C/C=C\CCN(C2=O)[C@@H](Cc2ccc(C(F)(F)F)cc2)C(=O)N(C)CC(=O)N[C@@H](CCc2ccc(Cl)c(Cl)c2)C(=O)N2C[C@H](OC3CCC3)C[C@H]2C(=O)NC2(CC(C)(C)C2)C(=O)N1C [PP2645]
- HRAS/KRAS (ratio of KD value with respect to GDP-bound HRAS wild-type protein to KD value with respect to KRAS) ([1]; class symbols): A (a compound having 10 or more and less than 20 is denoted as A)
- NRAS/KRAS (ratio of KD value with respect to GDP-bound NRAS wild-type protein to KD value with respect to KRAS) ([2]; class symbols): AA (a compound having 20 or more is denoted as AA)

Compound: CCO[C@@H]1C[C@H]2C(=O)NC3(CCC3)C(=O)N(C)[C@@H](C3CCCC3)C(=O)N(C)[C@H](C(=O)N3CCC3)CC(=O)N(C)[C@@H](CC)C(=O)N[C@@H]([C@@H](C)CC)C(=O)N(C)CC(=O)N(C)[C@H]3C/C=C\CCN(C3=O)[C@@H](Cc3ccc(C(F)(F)F)cc3)C(=O)N(C)CC(=O)N[C@@H](CCc3cc(F)c(C(F)(F)F)c(F)c3)C(=O)N2C1 [PP1091]
- HRAS/KRAS (ratio of KD value with respect to HRAS to KD value with respect to KRAS) ([1]; KD ratio, SPR): B (a compound having 3 or more and less than 10 is denoted as B)
- NRAS/KRAS (ratio of KD value with respect to NRAS to KD value with respect to KRAS) ([2]; KD ratio, SPR): A (a compound having 10 or more and less than 20 is denoted as A)

Compound: CCC[C@H]1C(=O)N[C@@H]([C@@H](C)CC)C(=O)N(C)CC(=O)N(C)[C@H]2C/C=C\CCN(C2=O)[C@@H](Cc2ccc(C)cc2)C(=O)N(C)CC(=O)N[C@@H](CCc2cc(F)c(C(F)(F)F)c(F)c2)C(=O)N2CCC[C@H]2C(=O)N(C)C2(CCC2)C(=O)N(C)[C@@H](C2CCCC2)C(=O)N(C)[C@H](C(=O)N(C)C)CC(=O)N1C [PP1794]
- HRAS/KRAS (ratio of KD value for HRAS to KD value for KRAS) ([1]; KD ratio, SPR): B (a compound having 3 or more and less than 10 is denoted as B)
- NRAS/KRAS (ratio of KD value for NRAS to KD value for KRAS) ([2]; KD ratio, SPR): A (a compound having 10 or more and less than 20 is denoted as A)

Compound: CCC[C@H]1C(=O)N[C@@H]([C@@H](C)CC)C(=O)N(C)CC(=O)N(C)[C@H]2C/C=C\CCN(C2=O)[C@@H](Cc2ccc(C(F)(F)F)cc2)C(=O)N(C)CC(=O)N[C@@H](CCc2cc(F)c(C(F)(F)F)c(F)c2)C(=O)N2C[C@H](OCC)C[C@H]2C(=O)NC2(CC(C)(C)C2)C(=O)N(C)[C@@H](C(CC)CC)C(=O)N(C)[C@H](C(=O)N(C)C)CC(=O)N1C [PP2125]
- HRAS/KRAS (ratio of KD value with respect to HRAS to KD value with respect to KRAS) ([1]; SPR): A (a compound having 10 or more and less than 20 is denoted as A)
- NRAS/KRAS (ratio of KD value with respect to NRAS to KD value with respect to KRAS) ([2]; SPR): AA (a compound having 20 or more is denoted as AA)
